Results as given in patent US20100216798A1, “FUSED HETEROCYCLES AS LCK INHIBITORS” (ASTELLAS PHARMA INC, priority 2005, published 2010).

The compounds below were run against T1, Purified Lck (Upstate) (Homo sapiens, UniProt P06239) (assay: Assay for Lck Activity). Conditions: Src substrate peptide-coated plate ELISA, 0.05 mM ATP, 30° C. for 60 minutes, anti-phosphotyrosine HRP detection.
T1 construct: purchased Upstate
Assay type: biochemical
Experimental: The Src substrate peptide (Upstate) was coated onto 96-well Maxisorp plates (Nunc). Plates were sealed and incubated at 4° C., for 16 hours, washed three times with TBST (20 mM Tris-HCl pH 7.5, 150 mM NaCl and 0.1% Tween-20). The plates were blocked with 0.1% BSA and washed three times with TBST. Purified Lck (Upstate) was incubated in 100 mM Tris-HCl pH 7.5, 125 mM MgCl2, 25 mM MnCl2, 2 mM EGTA, 0.25 mM Sodium Vanadate, 2 mM DTT, 0.05 mM ATP with or without inhibitors at 30° C. for 60 minutes and washed with TBST three times. For quantification of phosphorylated tyrosines, plates were incubated with anti-phosphotyrosine, HRP conjugate (4G10, Upstate) for 1 hour at ambient temperature and washed three times with TBST. Detection was carried out using a color reagent, TMB (KPL). Ten minute after TMB addition the OD at 450 nm was measured.

T1 sequence (P06239 whole entry, species assumed): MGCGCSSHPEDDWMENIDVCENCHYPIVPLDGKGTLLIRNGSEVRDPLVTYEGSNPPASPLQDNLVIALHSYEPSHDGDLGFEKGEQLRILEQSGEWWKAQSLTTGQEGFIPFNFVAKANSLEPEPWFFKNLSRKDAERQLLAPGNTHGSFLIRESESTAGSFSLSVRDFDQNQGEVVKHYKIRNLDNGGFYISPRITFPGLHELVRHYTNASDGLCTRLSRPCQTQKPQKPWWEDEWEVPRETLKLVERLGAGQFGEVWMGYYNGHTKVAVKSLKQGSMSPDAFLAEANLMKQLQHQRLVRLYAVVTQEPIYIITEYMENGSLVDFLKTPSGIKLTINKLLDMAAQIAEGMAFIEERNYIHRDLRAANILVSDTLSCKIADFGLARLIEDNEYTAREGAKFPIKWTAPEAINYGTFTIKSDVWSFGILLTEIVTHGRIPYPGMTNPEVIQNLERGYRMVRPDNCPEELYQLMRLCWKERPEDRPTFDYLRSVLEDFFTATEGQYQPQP

IC50 [nM] | Compound
350 | c1ccc(Nc2ccc3ncc(-c4ccncc4)n3n2)cc1 [Example 47, N-Phenyl-3-(4-pyridinyl)imidazo[1,2-b]pyridazin-6-amine]
81 | Oc1c(Cl)cc(-c2cnc3ccc(N[C@H]4CC[C@H](O)CC4)nn23)cc1Cl [Example 127, 2,6-dichloro-4-{6-[(trans-4-hydroxycyclohexyl)amino]imidazo[1,2-b]pyridazin-3-yl}phenol]
320 | c1cc(-c2cnc3ccc(NC45CC6CC(CC(C6)C4)C5)nn23)ccn1 [Example 249, N-1-Adamantyl-3-(4-pyridinyl)imidazo[1,2-b]pyridazin-6-amine]
410 | c1cc(Nc2ccc3ncc(-c4ccncc4)n3n2)ccn1 [Example 106, N,3-Di-4-pyridinylimidazo[1,2-b]pyridazin-6-amine]
97 | O[C@H]1CC[C@H](Nc2ccc3ncc(-c4ccnc(F)c4)n3n2)CC1 [Example 153, trans-4-{[3-(2-Fluoro-4-pyridinyl)imidazo[1,2-b]pyridazin-6-yl]amino}cyclohexanol]
380 | c1cc(-c2cnc3ccc(NC4CCCCC4)nn23)ccn1 [Example 44, N-Cyclohexyl-3-(4-pyridinyl)imidazo[1,2-b]pyridazin-6-amine]
460 | c1cc(-c2cnc3ccc(NC4CCOCC4)nn23)ccn1 [Example 16, 3-(4-pyridinyl)-N-(tetrahydro-2H-pyran-4-yl)imidazo[1,2-b]pyridazin-6-amine]
310 | c1ccc(CNc2ccc3ncc(-c4ccncc4)n3n2)cc1 [Example 102, N-Benzyl-3-(4-pyridinyl)imidazo[1,2-b]pyridazin-6-amine]
